Experimental data as given in ChEMBL document CHEMBL5725244, “IRE-1α inhibitors” (2016).

Assay: Inhibition Assay: A fusion protein comprising glutathione S transferase (GST) and human IRE-1α (GST-IRE-1α) obtained from a 500 ml baculovirus-infected insect cell culture can be used to measure IRE-1α activity in vitro.Five ul of a reaction mixture comprising 1x reaction buffer (5x reaction buffer is 100 mM Hepes pH 7.5, 250 mM KOAc, 2.5 mM MgCl2), 3 mM DTT, and 0.4% polyethylene glycol water is added to each well of 384 well plates. Twenty-five nanoliters of a 1 mM test compound solution are added to test wells. Three ul of a 128 ng/ml IRE-1α preparation are added to each test well and to positive control wells (final concentration 5.82 ng/well). Negative control wells contain only reaction mixture and test compound.After spinning the plates at 1200 rpm for 30 seconds, 3 ul of an IRE-1α human mini-XBP-1 mRNA stem-loop substrate 5'-[…]-3' (SEQ ID NO:1), labeled with the fluorescent dye Cy5 at the 5' end and Black Hole Quencher 2 (BH2) at the 3' end, are added to each well of a control plate. The plates are again spun at 1200 rpm for 30 seconds. Final concentrations for the assay are: 63 nM IRE-1α substrate, 5.82 ng IRE-1α protein, and 2.5 uM test compound. The plates are covered with lids and incubated for one hour at 30° C. The plates are then transferred to an ACQUEST microplate reader. Data is analyzed using data analysis software, and the percent activity of IRE-1α is calculated.
With `CN(Cc1ccccc1)C1CCN(c2ccc3c(C=O)c(O)ccc3c2)C1` (configuration not stated) the IC50 was greater than 1000 nM. Molecule `O=C(C1CCN(c2ccc3ccc(O)c(CO)c3c2)C1)N1CCCCC1` (configuration not stated) has an IC50 greater than 1000 nM. In the case of `OCc1c(O)ccc2ccc(N3CCCC3)cc12`, the IC50 is reported as greater than 1000 nM. Molecule `CN1CCN(C2CCN(c3ccc4ccc(O)c(CO)c4c3)C2)CC1` (configuration not stated) has an IC50 greater than 1000 nM. For `CN(Cc1ccccc1)C(=O)C1CCN(c2ccc3ccc(O)c(CO)c3c2)C1` (configuration not stated), the IC50 was greater than 1000 nM. `CN1CCN(c2ccc3ccc(O)c(CO)c3c2)CC1` showed an IC50 greater than 1000 nM. With `OCc1c(O)ccc2cc(N3CCOCC3)ccc12` the IC50 was greater than 1000 nM.
